Assay results reported in PubChem BioAssay (NCI).
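All cell lines were grown in 96-well plates and treated with compound for 48 hours. GI50 marks 50% less growth. TGI: concentration producing complete growth inhibition.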

What was measured:
Assay in all cases: DTP human tumour cell line panel, 48 h; in the data active = GI50 below about 0.43 µM; inactive = the rest
KM12 colon = test system: KM12 colon
K-562 leukemia = test system: K-562 leukemia
UO-31 renal = test system: UO-31 renal
IGROV1 ovarian = test system: IGROV1 ovarian
SR leukemia = test system: SR leukemia
MDA-MB-231 breast = test system: MDA-MB-231 breast
OVCAR-4 ovarian = test system: OVCAR-4 ovarian
PC-3 prostate = test system: PC-3 prostate
SF-268 CNS = test system: SF-268 CNS
HCT-116 colon = test system: HCT-116 colon
ACHN renal = test system: ACHN renal
SW-620 colon = test system: SW-620 colon
786-0 renal = test system: 786-0 renal
UACC-62 melanoma = test system: UACC-62 melanoma
HCC-2998 colon = test system: HCC-2998 colon
A498 renal = test system: A498 renal
U251 CNS = test system: U251 CNS
HOP-62 NSCLC = test system: HOP-62 NSCLC
MCF7 breast = test system: MCF7 breast
SK-OV-3 ovarian = test system: SK-OV-3 ovarian
OVCAR-8 ovarian = test system: OVCAR-8 ovarian
HS 578T breast = test system: HS 578T breast
SK-MEL-2 melanoma = test system: SK-MEL-2 melanoma
BT-549 breast = test system: BT-549 breast
DU-145 prostate = test system: DU-145 prostate
HT29 colon = test system: HT29 colon
SN12C renal = test system: SN12C renal
CCRF-CEM leukemia = test system: CCRF-CEM leukemia
A549 NSCLC = test system: A549 NSCLC
HOP-92 NSCLC = test system: HOP-92 NSCLC
NCI-H522 lung = test system: NCI-H522 lung
RXF 393 renal = test system: RXF 393 renal
LOX IMVI melanoma = test system: LOX IMVI melanoma
M14 melanoma = test system: M14 melanoma
MOLT-4 leukemia = test system: MOLT-4 leukemia
OVCAR-3 ovarian = test system: OVCAR-3 ovarian
T-47D breast = test system: T-47D breast
RPMI-8226 leukemia = test system: RPMI-8226 leukemia
UACC-257 melanoma = test system: UACC-257 melanoma
HL-60(TB) leukemia = test system: HL-60(TB) leukemia
SNB-19 CNS = test system: SNB-19 CNS
HCT-15 colon = test system: HCT-15 colon
NCI-H226 lung = test system: NCI-H226 lung
CAKI-1 renal = test system: CAKI-1 renal
COLO 205 colon = test system: COLO 205 colon
MALME-3M melanoma = test system: MALME-3M melanoma
OVCAR-5 ovarian = test system: OVCAR-5 ovarian
NCI/ADR-RES ovarian = test system: NCI/ADR-RES ovarian
SF-539 CNS = test system: SF-539 CNS
NCI-H460 lung = test system: NCI-H460 lung
SF-295 CNS = test system: SF-295 CNS
NCI-H23 lung = test system: NCI-H23 lung
MDA-MB-435 = test system: MDA-MB-435
SK-MEL-5 melanoma = test system: SK-MEL-5 melanoma
TK-10 renal = test system: TK-10 renal
EKVX NSCLC = test system: EKVX NSCLC
SK-MEL-28 melanoma = test system: SK-MEL-28 melanoma
SNB-75 CNS = test system: SNB-75 CNS

COC(=O)c1cc(Nc2ccc(O)c3c2C(=O)c2c([N+](=O)[O-])ccc(O)c2C3=O)cc(C(=O)OC)c1
5.56 µM: TGI (COLO 205 colon)
42.6 µM: TGI (SR leukemia)
> 100 µM: TGI (KM12 colon) | TGI (K-562 leukemia) | TGI (UO-31 renal) | TGI (IGROV1 ovarian) | TGI (MDA-MB-231 breast) | TGI (OVCAR-4 ovarian) | TGI (PC-3 prostate) | TGI (SF-268 CNS) | TGI (HCT-116 colon) | TGI (ACHN renal) | TGI (SW-620 colon) | TGI (786-0 renal) | TGI (UACC-62 melanoma) | TGI (HCC-2998 colon) | TGI (A498 renal) | TGI (U251 CNS) | TGI (HOP-62 NSCLC) | TGI (MCF7 breast) | TGI (SK-OV-3 ovarian) | TGI (OVCAR-8 ovarian) | TGI (HS 578T breast) | TGI (SK-MEL-2 melanoma) | TGI (BT-549 breast) | TGI (HT29 colon) | TGI (SN12C renal) | TGI (CCRF-CEM leukemia) | TGI (HOP-92 NSCLC) | TGI (RXF 393 renal) | TGI (LOX IMVI melanoma) | TGI (M14 melanoma) | TGI (MOLT-4 leukemia) | TGI (T-47D breast) | TGI (RPMI-8226 leukemia) | TGI (UACC-257 melanoma) | TGI (SNB-19 CNS) | TGI (HCT-15 colon) | TGI (NCI-H226 lung) | TGI (CAKI-1 renal) | TGI (OVCAR-5 ovarian) | TGI (NCI/ADR-RES ovarian) | TGI (SF-539 CNS) | TGI (SF-295 CNS)
3.51 µM: TGI (DU-145 prostate)
28.3 µM: TGI (NCI-H522 lung)
6.39 µM: TGI (MALME-3M melanoma)
88.2 µM: TGI (HL-60(TB) leukemia)
4.05 µM: TGI (A549 NSCLC)
inactive: GI50 (KM12 colon) 34.5 µM | GI50 (K-562 leukemia) 27.2 µM | GI50 (UO-31 renal) 16.5 µM | GI50 (IGROV1 ovarian) 26.9 µM | GI50 (SR leukemia) 3.19 µM | GI50 (MDA-MB-231 breast) 13.8 µM | GI50 (OVCAR-4 ovarian) 3.99 µM | GI50 (PC-3 prostate) 13.5 µM | GI50 (SF-268 CNS) 7.97 µM | GI50 (HCT-116 colon) 4.17 µM | GI50 (ACHN renal) 21.3 µM | GI50 (SW-620 colon) 3.3 µM | GI50 (786-0 renal) 30.6 µM | GI50 (UACC-62 melanoma) 4.63 µM | GI50 (HCC-2998 colon) 4.39 µM | GI50 (A498 renal) 20.8 µM | GI50 (U251 CNS) 25.7 µM | GI50 (HOP-62 NSCLC) 4.04 µM | GI50 (MCF7 breast) 4.3 µM | GI50 (SK-OV-3 ovarian) > 100 µM | GI50 (OVCAR-8 ovarian) 6.57 µM | GI50 (HS 578T breast) 3.77 µM | GI50 (SK-MEL-2 melanoma) 4.05 µM | GI50 (BT-549 breast) 13.7 µM | GI50 (DU-145 prostate) 1.75 µM | GI50 (HT29 colon) 8.21 µM | GI50 (SN12C renal) 21.4 µM | GI50 (CCRF-CEM leukemia) 4.27 µM | GI50 (A549 NSCLC) 1.74 µM | GI50 (HOP-92 NSCLC) 22 µM | GI50 (NCI-H522 lung) 4.07 µM | GI50 (RXF 393 renal) 5.09 µM | GI50 (LOX IMVI melanoma) 6.39 µM | GI50 (M14 melanoma) 3.15 µM | GI50 (MOLT-4 leukemia) 6.37 µM | GI50 (OVCAR-3 ovarian) 3.42 µM | GI50 (T-47D breast) 4.78 µM | GI50 (RPMI-8226 leukemia) 3.84 µM | GI50 (UACC-257 melanoma) 3.23 µM | GI50 (HL-60(TB) leukemia) 18.4 µM | GI50 (SNB-19 CNS) 22.2 µM | GI50 (HCT-15 colon) 2.77 µM | GI50 (NCI-H226 lung) 20.1 µM | GI50 (CAKI-1 renal) 77.1 µM | GI50 (COLO 205 colon) 2.38 µM | GI50 (MALME-3M melanoma) 2.75 µM | GI50 (OVCAR-5 ovarian) 26 µM | GI50 (NCI/ADR-RES ovarian) 26.8 µM | GI50 (SF-539 CNS) 60 µM | GI50 (NCI-H460 lung) 3.32 µM | GI50 (SF-295 CNS) 21.8 µM
18.9 µM: TGI (NCI-H460 lung)
21.3 µM: TGI (OVCAR-3 ovarian)

[O-]c1c2cc(-[n+]3c(-c4ccccc4)cc(-c4ccccc4)cc3-c3ccccc3)cc1CO[C@@H](c1ccccc1)[C@H](c1ccccc1)OCc1cccc(n1)CO[C@@H](c1ccccc1)[C@H](c1ccccc1)OC2
1.68 µM: TGI (UACC-62 melanoma)

O=C1c2cccnc2C(=O)c2c1c(C(=O)OCCCN1CCOCC1)c1ccccn21
0.0152 µM: TGI (LOX IMVI melanoma)
0.0699 µM: TGI (M14 melanoma)
10.7 µM: TGI (SF-268 CNS)
0.0244 µM: TGI (UACC-62 melanoma)
4.13 µM: TGI (SNB-19 CNS)
4.73 µM: TGI (OVCAR-5 ovarian)
> 100 µM: TGI (SR leukemia)
1.29 µM: TGI (DU-145 prostate)
0.184 µM: TGI (HCT-116 colon)
15.8 µM: TGI (MDA-MB-231 breast)
0.528 µM: TGI (OVCAR-3 ovarian)
12.5 µM: TGI (MOLT-4 leukemia)
3.15 µM: TGI (HCC-2998 colon)
0.0758 µM: TGI (UACC-257 melanoma)
0.015 µM: TGI (SNB-75 CNS)
4.57 µM: TGI (SK-MEL-28 melanoma)
5.57 µM: TGI (TK-10 renal)
0.0509 µM: TGI (CAKI-1 renal)
0.0569 µM: TGI (SK-MEL-2 melanoma)
5.94 µM: TGI (T-47D breast)
3.2 µM: TGI (IGROV1 ovarian)
1.71 µM: TGI (MALME-3M melanoma)
0.0235 µM: TGI (RXF 393 renal)
2.06 µM: TGI (MDA-MB-435)
0.929 µM: TGI (HOP-92 NSCLC)
1.82 µM: TGI (BT-549 breast) | TGI (SN12C renal)
2.18 µM: TGI (HT29 colon)
1.92 µM: TGI (OVCAR-8 ovarian)
2.21 µM: TGI (NCI/ADR-RES ovarian)
4.94 µM: TGI (PC-3 prostate)
0.0698 µM: TGI (SF-295 CNS)
inactive: GI50 (MDA-MB-231 breast) 1.32 µM | GI50 (OVCAR-4 ovarian) 0.94 µM
3.99 µM: TGI (OVCAR-4 ovarian)
0.072 µM: TGI (A549 NSCLC)
0.0403 µM: TGI (786-0 renal)
2.09 µM: TGI (A498 renal)
1.75 µM: TGI (SW-620 colon) | TGI (EKVX NSCLC)
0.0951 µM: TGI (SK-MEL-5 melanoma)
< 0.0127 µM: TGI (NCI-H522 lung)
active: GI50 (KM12 colon) 0.0333 µM | GI50 (K-562 leukemia) < 0.0124 µM | GI50 (IGROV1 ovarian) 0.0163 µM | GI50 (SR leukemia) < 0.01 µM | GI50 (NCI-H23 lung) < 0.01 µM | GI50 (PC-3 prostate) 0.0147 µM | GI50 (SF-268 CNS) < 0.01 µM | GI50 (HCT-116 colon) < 0.01 µM | GI50 (MDA-MB-435) < 0.0118 µM | GI50 (SK-MEL-5 melanoma) < 0.0114 µM | GI50 (SW-620 colon) < 0.01 µM | GI50 (786-0 renal) 0.0124 µM | GI50 (UACC-62 melanoma) < 0.01 µM | GI50 (HCC-2998 colon) < 0.01 µM | GI50 (A498 renal) 0.0295 µM | GI50 (MCF7 breast) < 0.01 µM | GI50 (TK-10 renal) 0.0292 µM | GI50 (OVCAR-8 ovarian) < 0.01 µM | GI50 (SK-MEL-2 melanoma) 0.0205 µM | GI50 (BT-549 breast) 0.0375 µM | GI50 (DU-145 prostate) < 0.01 µM | GI50 (HT29 colon) 0.354 µM | GI50 (SN12C renal) < 0.01 µM | GI50 (EKVX NSCLC) 0.0758 µM | GI50 (CCRF-CEM leukemia) 0.0493 µM | GI50 (A549 NSCLC) < 0.01 µM | GI50 (HOP-92 NSCLC) 0.151 µM | GI50 (NCI-H522 lung) < 0.01 µM | GI50 (RXF 393 renal) < 0.01 µM | GI50 (LOX IMVI melanoma) < 0.01 µM | GI50 (M14 melanoma) < 0.01 µM | GI50 (MOLT-4 leukemia) 0.135 µM | GI50 (OVCAR-3 ovarian) 0.0201 µM | GI50 (T-47D breast) 0.178 µM | GI50 (RPMI-8226 leukemia) 0.0252 µM | GI50 (UACC-257 melanoma) 0.0182 µM | GI50 (SK-MEL-28 melanoma) 0.0658 µM | GI50 (HL-60(TB) leukemia) 0.0361 µM | GI50 (SNB-19 CNS) < 0.01 µM | GI50 (CAKI-1 renal) < 0.01 µM | GI50 (COLO 205 colon) 0.0553 µM | GI50 (MALME-3M melanoma) 0.0125 µM | GI50 (OVCAR-5 ovarian) 0.0794 µM | GI50 (SNB-75 CNS) < 0.01 µM | GI50 (NCI/ADR-RES ovarian) < 0.01 µM | GI50 (SF-539 CNS) < 0.01 µM | GI50 (SF-295 CNS) 0.0167 µM
0.308 µM: TGI (COLO 205 colon)
15.4 µM: TGI (KM12 colon)
1.13 µM: TGI (RPMI-8226 leukemia)
2.76 µM: TGI (HL-60(TB) leukemia)
< 0.0116 µM: TGI (MCF7 breast)
0.0372 µM: TGI (SF-539 CNS)
